Reference: BigSolDB 2.1

SMILES	solubility (mole fraction) (in PEGDME 250, 293.15 K)	solubility (mole fraction) (in PEGDME 250, 298.15 K)	solubility (mole fraction) (in PEGDME 250, 303.15 K)	solubility (mole fraction) (in PEGDME 250, 308.15 K)	solubility (mole fraction) (in PEGDME 250, 313.15 K)	solubility (mole fraction) (in water, 293.15 K)	solubility (mole fraction) (in water, 298.15 K)	solubility (mole fraction) (in water, 303.15 K)	solubility (mole fraction) (in water, 308.15 K)	solubility (mole fraction) (in water, 313.15 K)
CC(=O)Nc1ccc(O)cc1	0.15	0.174	0.196	0.216	0.236	0.00151	0.00201	0.0022	0.00288	0.00334
O=C(O)c1ccccc1O	0.347	0.382	0.415	0.45	0.486	0.000205	0.000251	0.000306	0.000372	0.00046
